Values of other authors, collected in US20200171149A1, “COMBINATION THERAPY FOR NON-SMALL CELL LUNG CANCER POSITIVE FOR EGFR MUTATION” (MEDIMMUNE LIMITED, priority 2015, published 2020).

Tests used:
[1] = tested on: EGFR-TKI sensitizing and resistance T790M mutations; details: preclinical models; Janne et al., J Clin Oncol 2014
tumor = details: patients
human T-cell activation = details: in vitro
xenograft model = details: T-cell dependent mechanism

For `C=CC(=O)Nc1cc(Nc2nccc(-c3cn(C)c4ccccc34)n2)c(OC)cc1N(C)CCN(C)C` [AZD9291, N-(2-((2-(dimethylamino)ethyl)(methyl)amino)-4-methoxy-5-((4-(1-methyl-1H-indol-3-yl)pyrimidin-2-yl)amino)phenyl)acrylamide], the “Effectiveness against EGFR mutations” value [1] is listed as “effective against both EGFR-TKI sensitizing and resistance T790M mutations”.

In the case of `COc1cc2ncnc(Nc3ccc(F)c(Cl)c3)c2cc1OCCCN1CCOCC1` [gefitinib, N-(3-chloro-4-fluorophenyl)-7-methoxy-6-(3-morpholinopropoxy)quinazolin-4-amine], the Tumor regression (tumor) is listed as “tumor regression in some patients”.

B1: MEDI4736: anti-PD-L1 antibody selective for PD-L1; light chain variable SEQ ID NO: 1, heavy chain variable SEQ ID NO: 2 (antibody, V domains shown)
VH: EVQLVESGGGLVQPGGSLRLSCAASGFTFSRYWMSWVRQAPGKGLEWVANIKQDGSEKYYVDSVKGRFTISRDNAKNSLYLQMNSLRAEDTAVYYCAREGGWFGELAFDYWGQGTLVTVSS
VL: EIVLTQSPGTLSLSPGERATLSCRASQRVSSSYLAWYQQKPGQAPRLLIYDASSRATGIPDRFSGSGSGTDFTLTISRLEPEDFAVYYCQQYGSLPWTFGQGTKVEIK
In the case of B1, the “Relief of PD-L1-mediated suppression of human T-cell activation” value (human T-cell activation) is listed as “can relieve PD-L-mediated suppression of human T-cell activation” and the Tumor growth inhibition (xenograft model) is listed as “inhibits tumor growth”.
